# Source: US7192931B2, “Treatment of demyelinating diseases” (Neuren Pharmaceuticals Ltd., priority 2000, dated 2007)
# Experiments:
# Type in all cases: in vivo, mouse
# [1] = system: C57Bl/6 mice with MOG35-55 peptide-induced EAE; assay: Clinical scoring of MOG35-55-induced EAE
# Protocol: (§1) C57Bl/6 mice (8–10 week old) were injected subcutaneously in one flank with 300 μg of MOG35-55 peptide ([…]: SEQ ID NO:1) synthesized by Mimotapes Pty Ltd, Clayton, Australia and emulsified in CFA containing 500 μg of Mycobacterium tuberculosis H37Ra (DIFCO Laboratories, Detrit, USA). They also received 500 ng of pertussis toxin (List Biological Laboratories, CA, USA) in 200 μl PBS intravenously via the tail vein, followed 48 hours later by a second dose. A second injection of MOG peptide was given in the absence of pertussis toxin one week later in the opposite flank, as described previously (Kanwar et al., 2000b).
# (§2) Two treatment protocols were employed, involving the treatment of early disease, versus advanced disease. For early disease, reagents were administered at day 35 (following MOG injection). Antibody was administered thrice on alternate days, whereas neuroprotectors were given daily for 6 days, where 50% of reagent was given ip and 50% iv. In the treatment of advanced disease, therapy as above was initiated at day 60, with either three or eight anti-MAdCAM-1 mAb injections, and neuroprotectors given daily for either 7 or 18 days.
# (§3) The mice were monitored daily and scored according to the following scale: 0, no clinical signs of EAE; 1, limp tail; 2, partial hind limb paralysis; 3, complete hind limb paralysis; 4, complete hind limb and partial fore limb paralysis; 5, paralysis extending to diaphragm; 6, hind and fore limb paralysis; 7, death due to EAE. Paralysis extending to the diaphragm was denoted as difficulty in remaining upright. […] The daily mean clinical score for each group is the mean disease score of at least five mice. The body weight of animals was measured regularly throughout the experiments. The expanded disability status scale for EAE treated mice was scored using an earlier published scoring system (Villoslada et al. 2000).
# The rat hybridoma MECA-367 (rat IgG2a),5 which secretes a mAb against mouse MAdCAM-1 was either provided by Dr Eugene Butcher, Stanford University, Stanford, Calif. (FIGS. 1A and B), or obtained directly from the American Type Culture Collection, Rockville, Md. (FIG. 1C, and remainder of studies). Rat IgG obtained from Sigma Co., USA, served as a control. Antibodies were administered into the tail vein (70% of mAb) and intraperitoneally (30% of mAb) at 10 mg/Kg separately or in combination on alternate days at the time points indicated (FIGS. 1–4). The rat IgG control antibody was also administered at 10 mg/Kg. Backbones from sacrificed mice were frozen in isopentane at −70° C. Transverse 10 μm sections made through the spinal cord of control and diseased mice, in each case made at the same levels of the cord, were mounted on poly L-lysine-coated slides, and stained with haematoxylin and eosin.
# [2] = system: C57Bl/6 mice with MOG35-55 peptide-induced EAE; assay: Expanded disability status scale for EAE treated mice; settings: for Maximal disability score: Alertness / Maximal disability score: Bladder function / Maximal disability score: Eye movements / Maximal disability score: Motor (grip)* / Maximal disability score: Other signs (shine hairs and loose skin) / Maximal disability score: Sensory* Light touch / Maximal disability score: Sensory* Pain / Maximal disability score: Spontaneous mobility / Maximal disability score: Tone* / Maximal disability score: Tremor / Maximal disability score: Vision (including pupillary reflex) / Total expanded disability scale: mean values
# Protocol: as §1, §2, §3
# [3] = system: GluR2; assay: GluR2 subunit expression in spinal cord; settings: spinal cord of EAE mice, immunohistochemistry and Western blot
# Description: Frozen sections from lumbar spinal cord (10 μm) were acetone-fixed and immunostained for oligodendrocyte content with an antibody against CNPase (Sigma; diluted 1:100); for axonal damage with an antibody against non-phosphorylated neurofilament-H (SM 1-32; Stemberger Monoclonals Incorporated, Lutherville, Md., USA; diluted 1:1000), and for GluR2 and NR1 content using mouse mAbs obtained from Zymed Laboratories Inc., Carlton, San Francisco, Calif. Antibody staining was visualized with an avidin:biotinylated enzyme complex (Vector Laboratories, Burlingame, Calif., USA). Sections were viewed under a light microscope, and cells stained with the anti-CNPase and SM 1-32 antibodies were counted.
# PBS-perfused spinal cords were homogenized in lysis buffer (50 mM Tris pH 7.4, 100 μM EDTA, 0.25 M sucrose, 1% sodium dodecyl sulfate [SDS], 1% Nonidet P-40 [NP40], 1 μg/mL leupeptin, 1 μg/mL pepstatin A, and 100 μM phenylmethylsulfonylfluoride) at 4° C. using a motor-driven homogenizer (Virtus, Gardiner, N.Y.). […] The membranes were washed thrice with TBS-T and incubated with horseradish peroxidase-conjugated anti-mouse IgG (Sigma) diluted 1:5000 in TBS-T. Immunoreactivity was detected by Enhanced Chemiluminescence (Amersham International plc. England) and autoradiography.
smiles,measurement,setting,value
"NS(=O)(=O)c1cccc2c1c([N+](=O)[O-])cc1nc(O)c(O)nc12 [NBQX, 2,3-dihydroxy-6-nitro-7-sulfamoylbenzo(f)quinoxaline]",effectiveness of prolonged treatment on disease severity,"[1]; advanced disease, prolonged treatment from day 60 (FIG. 1C)",NBQX+GPE+anti-MAdCAM-1>NBQX+GPE>NBQX>GPE
same,effect on advanced EAE (clinical symptoms),"[1]; advanced disease, mAb three injections from day 51, neuroprotectors 7 days from day 60 (FIG. 1B)",only caused temporary remission
same,effect on development of EAE (clinical symptoms),"[1]; early disease, treatment from day 35 (FIG. 1A)","suppressed EAE, but to a greater extent than achieved with GPE"
same,total scores (disability scale),"[2]; at day 70 as printed, 35 for rat IgG treated control mice",30
same,Maximal disability score: Alertness,[2]; day 55 after immunization,2
same,Maximal disability score: Bladder function,[2]; day 55 after immunization,0
same,Maximal disability score: Eye movements,[2]; day 55 after immunization,1
same,Maximal disability score: Motor (grip)*,[2]; day 55 after immunization,12
same,Maximal disability score: Other signs (shine hairs and loose skin),[2]; day 55 after immunization,3
same,Maximal disability score: Sensory* Light touch,[2]; day 55 after immunization,8
same,Maximal disability score: Sensory* Pain,[2]; day 55 after immunization,8
same,Maximal disability score: Spontaneous mobility,[2]; day 55 after immunization,3
same,Maximal disability score: Tone*,[2]; day 55 after immunization,12
same,Maximal disability score: Tremor,[2]; day 55 after immunization,2
same,Maximal disability score: Vision (including pupillary reflex),[2]; day 55 after immunization,1
same,Total expanded disability scale,[2]; day 55 after immunization,53
same,Maximal disability score: Alertness,[2]; day 60 after immunization,2
same,Maximal disability score: Bladder function,[2]; day 60 after immunization,1
same,Maximal disability score: Eye movements,[2]; day 60 after immunization,1
same,Maximal disability score: Motor (grip)*,[2]; day 60 after immunization,12
same,Maximal disability score: Other signs (shine hairs and loose skin),[2]; day 60 after immunization,2
same,Maximal disability score: Sensory* Light touch,[2]; day 60 after immunization,8
same,Maximal disability score: Sensory* Pain,[2]; day 60 after immunization,8
same,Maximal disability score: Spontaneous mobility,[2]; day 60 after immunization,3
same,Maximal disability score: Tone*,[2]; day 60 after immunization,12
same,Maximal disability score: Tremor,[2]; day 60 after immunization,2
same,Maximal disability score: Vision (including pupillary reflex),[2]; day 60 after immunization,1
same,Total expanded disability scale,[2]; day 60 after immunization,53
same,Maximal disability score: Alertness,[2]; day 65 after immunization,1
same,Maximal disability score: Bladder function,[2]; day 65 after immunization,0
same,Maximal disability score: Eye movements,[2]; day 65 after immunization,0
same,Maximal disability score: Motor (grip)*,[2]; day 65 after immunization,4
same,Maximal disability score: Other signs (shine hairs and loose skin),[2]; day 65 after immunization,0
same,Maximal disability score: Sensory* Light touch,[2]; day 65 after immunization,0
same,Maximal disability score: Sensory* Pain,[2]; day 65 after immunization,0
same,Maximal disability score: Spontaneous mobility,[2]; day 65 after immunization,2
same,Maximal disability score: Tone*,[2]; day 65 after immunization,8
same,Maximal disability score: Tremor,[2]; day 65 after immunization,0
same,Maximal disability score: Vision (including pupillary reflex),[2]; day 65 after immunization,0
same,Total expanded disability scale,[2]; day 65 after immunization,15
same,Maximal disability score: Alertness,[2]; day 70 after immunization,1
same,Maximal disability score: Bladder function,[2]; day 70 after immunization,0
same,Maximal disability score: Eye movements,[2]; day 70 after immunization,1
same,Maximal disability score: Motor (grip)*,[2]; day 70 after immunization,4
same,Maximal disability score: Other signs (shine hairs and loose skin),[2]; day 70 after immunization,0
same,Maximal disability score: Sensory* Light touch,[2]; day 70 after immunization,0
same,Maximal disability score: Sensory* Pain,[2]; day 70 after immunization,0
same,Maximal disability score: Spontaneous mobility,[2]; day 70 after immunization,3
same,Maximal disability score: Tone*,[2]; day 70 after immunization,4
same,Maximal disability score: Tremor,[2]; day 70 after immunization,0
same,Maximal disability score: Vision (including pupillary reflex),[2]; day 70 after immunization,0
same,Total expanded disability scale,[2]; day 70 after immunization,13
same,Maximal disability score: Alertness,[2]; day 75 after immunization,1
same,Maximal disability score: Bladder function,[2]; day 75 after immunization,1
same,Maximal disability score: Eye movements,[2]; day 75 after immunization,0
same,Maximal disability score: Motor (grip)*,[2]; day 75 after immunization,8
same,Maximal disability score: Other signs (shine hairs and loose skin),[2]; day 75 after immunization,0
same,Maximal disability score: Sensory* Light touch,[2]; day 75 after immunization,4
same,Maximal disability score: Sensory* Pain,[2]; day 75 after immunization,8
same,Maximal disability score: Spontaneous mobility,[2]; day 75 after immunization,3
same,Maximal disability score: Tone*,[2]; day 75 after immunization,4
same,Maximal disability score: Tremor,[2]; day 75 after immunization,0
same,Maximal disability score: Vision (including pupillary reflex),[2]; day 75 after immunization,1
same,Total expanded disability scale,[2]; day 75 after immunization,30
same,Maximal disability score: Alertness,[2]; day 119 after immunization,1
same,Maximal disability score: Bladder function,[2]; day 119 after immunization,0
same,Maximal disability score: Eye movements,[2]; day 119 after immunization,1
same,Maximal disability score: Motor (grip)*,[2]; day 119 after immunization,4
same,Maximal disability score: Other signs (shine hairs and loose skin),[2]; day 119 after immunization,2
same,Maximal disability score: Sensory* Light touch,[2]; day 119 after immunization,4
same,Maximal disability score: Sensory* Pain,[2]; day 119 after immunization,4
same,Maximal disability score: Spontaneous mobility,[2]; day 119 after immunization,2
same,Maximal disability score: Tone*,[2]; day 119 after immunization,4
same,Maximal disability score: Tremor,[2]; day 119 after immunization,1
same,Maximal disability score: Vision (including pupillary reflex),[2]; day 119 after immunization,0
same,Total expanded disability scale,[2]; day 119 after immunization,23
same,GluR2 expression,[3],downregulates the AMPA receptor
